The melting point is the temperature, or range, at which the solid turns liquid.

Each structure is given as a SMILES string. Bounds are passed on as bounds.

Take `Cn1nnnc1CC(=S)NCCc1ccc(OCc2ccccc2)c(OCc2ccccc2)c1`: the melting point came to 110 °C.

Turning to `COc1cc(Nc2nc3cccc(-c4cccc(Cl)c4)c3o2)cc(OC)c1OC`, the melting point lay in the range of 199 to 201 °C.

`Cn1cc(-c2cc3cccnc3[nH]2)c2cc(O)ccc21` yielded a melting point of 199 to 200 °C.

Consider `COc1ccccc1CN1CCC(CCC(=O)c2ccc(N3CCCC3)cc2)CC1`, for which the melting point lay in the range of 89 to 91 °C.

Regarding `CCOC(=O)/C(=C\Nc1cc(OC)ccc1OC)c1ccc(OC)cc1`, the melting point fell in the range of 65 to 66 °C.

The molecule `CCN(CC)CCOc1ccc(NC(=O)C#Cc2cccnc2)cc1Cl` gave a melting point of 118 to 120 °C.

As for `COC(=O)[C@H](Cc1cc(Cl)c(OCCc2coc(-c3cccc(OCc4ccccc4)c3)n2)c(Cl)c1)NC(=O)C(F)(F)F`, the melting point fell in the range of 111 to 113 °C.

On to `O=C(Nc1ccc(C#CC2(O)CN3CCC2CC3)cc1)C(F)(F)F` (stereo not given), for which the melting point lay within 222 to 223 °C.

With `Cn1ncc(/C=C/C(=O)Nc2ccc(CS(C)(=O)=O)cc2)c1-c1ccc(F)cc1`, the melting point lay in the range of 251 to 252 °C.

The molecule `COc1ccc2cc([C@H](C)C(=O)OCCCN3C(=O)OC[C@H]3C(C)(C)SN=O)ccc2c1` yielded a melting point of 116 to 117 °C.

Turning to `COc1c(C)c(C)c(OC)c(C=CC(=O)C(=O)O)c1C`, the melting point is 126 to 127 °C.

`CCc1cccc(C)c1COc1cc(C(=O)OC)cc2c1nc(C)n2C` registered a melting point of 157 °C.

Molecule `ClC(Cl)(Cl)SNc1nc(C(Cl)(Cl)Cl)ns1` returned a melting point of 180 °C.

Molecule `O[C@@H]1CNC[C@H]1Oc1cccc(Cl)c1` (relative stereo) registered a melting point of 128 to 129 °C.

For `CC(C)c1ccc(F)c(C(C)C)c1NC(=O)CN1CCN(CCSc2nc3ccccc3o2)CC1`, the melting point fell in the range of 142 to 144 °C.

Consider `Cc1nc2c(O)cc(C(=O)N(C)C)cc2n1COCC[Si](C)(C)C`, for which the melting point is 150 to 151 °C.

As to `OC(Cc1ccccc1Cl)(Cn1cncn1)C1(Cl)CC1` (stereo not given), the melting point amounted to 107 °C.

In turn, `Cc1nnc2ccc(-c3ccsc3)nn12` registered a melting point of 154 to 156 °C.

In turn, `Cc1c[nH]c(C)c1CCC(=O)O` displayed a melting point of 134 to 136 °C.

Molecule `Cc1nc(N2CCN(Cc3ccccc3)C2=N)sc1C(=O)NCc1ccc(F)c(F)c1` returned a melting point of 140 to 142 °C.

`CC(=O)Oc1ccc2cccc(OS(=O)(=O)C(F)(F)F)c2n1` came in with a melting point of 90 °C.

`CCOC(=O)C(=O)CC(=O)c1cn(Cc2ccc(F)cc2)c2cc(F)ccc2c1=O` registered a melting point of 151 to 152 °C.

Take `CC(=O)COc1ccc(Cc2ccccc2)cc1`: the melting point lay in the range of 51 to 52 °C.

Take `COc1ccc(N2CCN(c3c(C)c(C)c4c(c3C)CC(C)(CO)O4)CC2)cc1` (stereo not given): the melting point lay within 137 to 139 °C.

Regarding `CCC(O)c1ccc(-c2cccc(COc3ccc(CO)c(CO)c3)c2)c(C)c1` (stereo not given), the melting point was 78 °C.

Turning to `CC(C)c1cccc(Nc2nc(Cl)nc(NCc3ccccn3)n2)c1`, the melting point is 130 to 132 °C.

The molecule `Oc1cccc(-c2nc3cccc(CBr)c3o2)c1` came in with a melting point of 225 to 228 °C.

On to `COc1ccc(Nc2ccc(Nc3ncnc4cc(-c5ccccc5[N+](=O)[O-])sc34)cc2)cc1`, for which the melting point was in the range of 228 to 237 °C.

The molecule `CCCCOc1ccc(CCCOC(=O)NS(=O)(=O)NCCOC(C)C)c(Oc2ncc(C(F)(F)F)cc2Cl)c1` came in with a melting point of 91.4 to 91.6 °C.

The molecule `CNc1nc(Br)cnc1N` displayed a melting point of 121 °C.

`CCn1nnc(C(CO)=C(c2ccc(F)cc2)c2ccc(F)cc2)n1` registered a melting point of 82 to 84 °C.

With `O=C(c1ccccc1)c1cnn2c(-c3cccnc3)ccnc12`, the melting point was in the range of 202 to 203 °C.

`C=C(CC)C(=O)c1cc2c(c(Cl)c1Cl)OC(C(=O)O)C2` (stereo not given) yielded a melting point of 148 °C.

For `Cc1sc2ncc(C(=O)/C=C/c3ccccc3)n2c1C`, the melting point lay within 189 to 190 °C.

On to `Clc1ccc(CCOc2ncnc3ccccc23)cc1`, for which the melting point was in the range of 57 to 58 °C.

Molecule `CC1Sc2ccccc2N1C(=S)Nc1cccc(Cl)c1` (stereo not given) registered a melting point of 120 to 122 °C.

In turn, `CC(=O)N1CCN(c2ccc(-c3cnc4[nH]cc(C(=O)C5(C)CCCCC5)c4n3)cc2)CC1` had a melting point of 278 to 285 °C.

Regarding `Clc1ccc(CN2CC3(COc4cc5c(cc43)OCO5)c3ccccc32)o1` (stereo not given), the melting point is 148 to 150 °C.

Molecule `O=C1NCCn2c1c(-c1ccccc1)c1ccccc1c2=O` came in with a melting point of over 300 °C.

For the molecule `CCC(O)(c1ccccc1)c1ccccc1`, the melting point was 93 to 94 °C.

As for `CC1(O)CC(=O)OC(CCc2ccccc2OCc2ccccc2)C1Br` (stereo not given), the melting point lay within 122 to 125 °C.

The molecule `Cc1ccc(C(=O)NCc2ccc(Br)cc2F)c(OCC(=O)O)c1` yielded a melting point of 188 to 189 °C.

Take `CON=C(c1ccc(OC(C)(C)C(=O)O)cc1)c1cccs1`: the melting point was 168 °C.

Molecule `Cc1nn(C)c2ncc3c(c12)CCC(C)C3` (stereo not given) displayed a melting point of 92 to 101 °C.

`COc1ccc(-c2c(Cl)c(CN3C(=O)CCC3=O)nc3sc4c(c23)CCC(C(=O)N2CCOCC2)C4)cc1` (stereo not given) yielded a melting point of 170 to 171 °C.

`C[C@@H](N[C@@H](CC(=O)N1CCn2c(nnc2C(F)(F)F)C1)Cc1cc(F)c(F)cc1F)c1ccccc1` displayed a melting point of 128 °C.

As to `CC1(C)C2CC(=O)C(CCC(=O)O)C1C2` (stereo not given), the melting point stood at 45 °C.

Turning to `COCCOC(=O)N1c2cc(Cl)ccc2NC(=O)[C@@H]1C`, the melting point is 93 to 94 °C.

`CCN(CC)c1ccc([N+](=O)[O-])c(C(=O)NCC2CCN(C(c3ccccc3)c3ccccc3)CC2)c1` showed a melting point of 167 to 168 °C.

Regarding `NC(=O)c1cccc(OCCCCC/C=C\c2ccsc2)c1`, the melting point lay in the range of 71 to 73 °C.

`COc1ccc(C(=O)Nc2ccc(F)cc2F)cc1N` returned a melting point of 166 to 168 °C.

As for `Cc1nc2c(s1)CC(=O)CC2`, the melting point was in the range of 95 to 96 °C.

The molecule `CC(=O)NC(NCC(=O)OCc1ccccc1)C(=O)NCc1ccccc1` (stereo not given) showed a melting point of 133 to 135 °C.

Molecule `C=C1c2ccccc2C2(CCN(C)CC2)c2cccc(O)c21` yielded a melting point of 117 to 120 °C.

The molecule `COc1ccc(C)c2nc(Cc3ccc(Cl)cc3)[nH]c12` displayed a melting point of 195 to 197 °C.

`Cc1c(C(=O)Nc2ccc(N3CCC(N4CCOCC4)CC3)c([N+](=O)[O-])c2)cnn1-c1ccc(C(F)(F)F)cc1` returned a melting point of 225 to 230 °C.

`O=C(Nc1ccc(Cl)c(Cl)c1)O[C@H]1COC(c2ccccc2)=N[C@@H]1c1ccccc1` (racemic): the melting point was 184 °C.

`COCC1COc2cc3ncnc(Nc4cc(Cl)cc(Cl)c4)c3cc2O1` (stereo not given) displayed a melting point of 269 to 274 °C.

On to `CCOC(=O)CCCn1c(=O)[nH]c2ccccc2c1=O`, for which the melting point fell in the range of 133 to 135 °C.

Take `CCn1cc(-c2cnccn2)ccc1=O`: the melting point was 120 to 121 °C.

In turn, `O=C(Nc1ccc(O)cc1)C(=O)N1CCC(Cc2ccc(F)cc2)CC1` came in with a melting point of 98 to 100 °C.

As to `CC1CCN(C(=O)Oc2ccc(Oc3ccccc3)cc2F)CC1`, the melting point was 43 to 46 °C.

The molecule `O=C(Nc1ccc(C(F)(F)F)cc1)Nc1nc(OCC(F)(F)F)cc(C(F)(F)F)n1` gave a melting point of 197 to 199 °C.

For `COc1cc(C(=O)c2ncc3ccc(NC(C)=O)cn23)ccc1[N+](=O)[O-]`, the melting point came to 257 °C.

Molecule `O=C1N(Cc2nc3cc(F)ccc3[nH]2)c2ccccc2C12COc1cc3c(cc12)OCO3` (stereo not given) gave a melting point of 138 to 142 °C.

Molecule `O=c1cccccc1N1CCN(Cc2ccccc2)CC1` registered a melting point of 78 to 80 °C.

`Brc1cccc(-c2cc3nccnc3[nH]2)c1`: the melting point was 247 to 249 °C.

As to `COc1ccc(OC)c(C(=O)N2CCc3cc(O)ccc3C2)c1`, the melting point was in the range of 61 to 86 °C.

`COc1ccc(C2C3=C(COC3=O)Nc3ccc4nc(S)[nH]c4c32)cc1O` (stereo not given) showed a melting point of 334 to 337 °C.

Turning to `COC(=O)c1cc(N)cc(-n2cccc2)c1`, the melting point fell in the range of 116 to 118 °C.

`COC(=O)c1nc(Br)ccc1O` had a melting point of 115 to 117 °C.

Turning to `Cn1nc(C#N)c(Nc2ccc(Cl)cc2[N+](=O)[O-])n1`, the melting point was 166 to 168 °C.

As to `Cc1ccc(Cl)c(N2C(=O)C(=NO)c3ccccc32)c1Cl`, the melting point lay within 190 to 191 °C.

On to `NCC1CCCN(c2c(F)cc3c(=O)c(C(=O)O)cn(C4CC4)c3c2F)C1` (stereo not given), for which the melting point lay in the range of 242 to 243 °C.

As to `CC1(C)OC(=O)C(C=Nc2cncc(Br)c2)C(=O)O1`, the melting point was in the range of 200 to 202 °C.

The molecule `C=CCNc1cc(C(=O)O)cc(S(N)(=O)=O)c1-c1ccccc1` yielded a melting point of 169 to 172 °C.

The molecule `S=c1cc(-c2nc[nH]n2)oc2ccccc12` came in with a melting point of 232 °C.

For `COc1cc2c(cc1OC)OC(C#N)C2` (stereo not given), the melting point came out at 162 °C.

As to `CC(=O)SC(CC(=O)c1cccc(C)c1)C(=O)O` (stereo not given), the melting point is 74 to 76 °C.

The molecule `O=C1c2ccccc2S(=O)(=O)N1CS(=O)(=O)c1ccccc1` yielded a melting point of 169 to 171 °C.

For `O=C(c1ccc(-c2ccccc2)cc1)N1Cc2cccn2Cc2ncccc21`, the melting point fell in the range of 171 to 172 °C.

Turning to `CCCN(CCC)C1Cc2cc3c(cc2C1)C(=O)N(Cc1ccccn1)C3=O`, the melting point lay in the range of 130 to 135 °C.

`O=C1N(c2cc(Cl)cc(Cl)c2)C(=O)C2(Cc3ccc(-c4nnn[nH]4)cc3)CCCN12` (stereo not given): the melting point stood at 195 °C.

Take `CC(C)c1cccc(C(C)C)c1NC(=O)C(C)(C)CCCOc1ccc2c(c1)C=C(c1nccn1C)C(CCc1ccccc1)O2` (racemic): the melting point lay in the range of 108 to 110 °C.

`COC(=O)c1cc(-c2ccc(Cl)cc2)n(Cc2ccc(Cl)cc2Cl)n1` returned a melting point of 105 °C.

As to `Cc1cc(C)nc(S(=O)(=O)Nc2c(Cl)cccc2Cl)n1`, the melting point fell in the range of 261 to 263 °C.

`COc1cc(N)c(Cl)cc1C(=O)NCC1CCN(CCCCCNCc2ccc(F)cc2)CC1`: the melting point lay within 66 to 68 °C.

In turn, `COc1ccc(C(=O)Nc2c(Cl)cncc2Cl)cc1OC1C=CCC1` (stereo not given) showed a melting point of 177 to 178 °C.

In turn, `Cc1ccc(S(=O)(=O)Oc2cc(C(C)(C)C)c(SC3=C(O)CC(CCc4ccc(O)cc4)(C4CCCCC4)OC3=O)cc2C)cc1` (stereo not given) came in with a melting point of 105 °C.

`CO[C@@H]1CCCC(c2ccc(C(=O)N3Cc4cccn4Cc4ccccc43)cc2C)=C1C` displayed a melting point of 127 to 128 °C.

For the origin of these results see a melting point compilation (Tetko et al.; mined from patent text by program, amines drawn as free bases though some values may be those of a salt).
